In ChEMBL document CHEMBL1145498, “A systematic interaction map of validated kinase inhibitors with Ser/Thr kinases” (Proc Natl Acad Sci U S A, 2007):

What was measured:
[1] = biological target: cAMP-dependent protein kinase catalytic subunit alpha (Homo sapiens) (UniProt P17612)
[2] = biological target: Serine/threonine-protein kinase Nek6 (Homo sapiens) (UniProt Q9HC98)
[3] = biological target: T1, Serine/threonine-protein kinase PLK4 (Homo sapiens) (UniProt O00444)
T1 sequence (whole entry): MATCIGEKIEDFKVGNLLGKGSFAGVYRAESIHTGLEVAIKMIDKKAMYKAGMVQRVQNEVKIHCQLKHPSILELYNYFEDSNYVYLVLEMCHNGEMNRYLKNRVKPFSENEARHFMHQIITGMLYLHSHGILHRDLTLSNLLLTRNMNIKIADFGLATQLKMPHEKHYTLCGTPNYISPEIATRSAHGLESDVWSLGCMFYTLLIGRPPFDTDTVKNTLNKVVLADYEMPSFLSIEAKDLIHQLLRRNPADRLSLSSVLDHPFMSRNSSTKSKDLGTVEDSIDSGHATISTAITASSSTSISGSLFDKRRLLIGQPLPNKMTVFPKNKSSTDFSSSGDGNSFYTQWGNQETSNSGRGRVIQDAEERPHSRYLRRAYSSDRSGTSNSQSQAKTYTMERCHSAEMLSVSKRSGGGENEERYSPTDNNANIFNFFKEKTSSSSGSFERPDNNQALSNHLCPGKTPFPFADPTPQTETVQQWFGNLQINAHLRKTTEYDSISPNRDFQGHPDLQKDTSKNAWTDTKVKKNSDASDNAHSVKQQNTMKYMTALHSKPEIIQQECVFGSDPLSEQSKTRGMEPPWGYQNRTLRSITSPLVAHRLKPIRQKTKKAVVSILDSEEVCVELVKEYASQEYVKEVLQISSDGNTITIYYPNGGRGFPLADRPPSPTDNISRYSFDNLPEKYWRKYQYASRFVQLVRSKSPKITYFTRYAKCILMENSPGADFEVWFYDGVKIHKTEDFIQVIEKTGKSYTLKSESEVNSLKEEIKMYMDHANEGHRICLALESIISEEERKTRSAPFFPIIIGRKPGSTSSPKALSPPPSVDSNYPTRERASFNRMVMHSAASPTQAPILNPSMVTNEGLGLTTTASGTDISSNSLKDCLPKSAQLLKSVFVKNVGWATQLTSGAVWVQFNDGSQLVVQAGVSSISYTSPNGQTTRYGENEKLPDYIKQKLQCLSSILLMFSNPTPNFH

[4] = biological target: Serine/threonine-protein kinase 26 (Homo sapiens) (UniProt Q9P289)
[5] = biological target: T2, Serine/threonine-protein kinase 17A (Homo sapiens) (UniProt Q9UEE5)
T2 sequence (whole entry): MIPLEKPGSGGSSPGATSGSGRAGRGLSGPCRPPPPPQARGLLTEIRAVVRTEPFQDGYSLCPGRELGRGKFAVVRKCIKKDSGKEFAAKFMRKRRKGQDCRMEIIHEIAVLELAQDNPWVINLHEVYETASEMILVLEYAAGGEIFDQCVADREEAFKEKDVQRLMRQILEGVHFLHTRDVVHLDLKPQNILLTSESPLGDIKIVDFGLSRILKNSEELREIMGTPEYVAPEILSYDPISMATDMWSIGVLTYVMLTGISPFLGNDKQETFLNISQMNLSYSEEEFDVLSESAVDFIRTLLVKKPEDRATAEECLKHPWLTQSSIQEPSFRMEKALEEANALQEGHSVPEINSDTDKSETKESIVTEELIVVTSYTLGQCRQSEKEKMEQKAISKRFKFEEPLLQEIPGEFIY

[6] = biological target: Serine/threonine-protein kinase PAK 6 (Homo sapiens) (UniProt Q9NQU5)
[7] = biological target: Serine/threonine-protein kinase VRK2 (Homo sapiens) (UniProt Q86Y07)
[8] = biological target: T3, 3-phosphoinositide-dependent protein kinase 1 (Homo sapiens) (UniProt O15530)
T3 sequence (whole entry): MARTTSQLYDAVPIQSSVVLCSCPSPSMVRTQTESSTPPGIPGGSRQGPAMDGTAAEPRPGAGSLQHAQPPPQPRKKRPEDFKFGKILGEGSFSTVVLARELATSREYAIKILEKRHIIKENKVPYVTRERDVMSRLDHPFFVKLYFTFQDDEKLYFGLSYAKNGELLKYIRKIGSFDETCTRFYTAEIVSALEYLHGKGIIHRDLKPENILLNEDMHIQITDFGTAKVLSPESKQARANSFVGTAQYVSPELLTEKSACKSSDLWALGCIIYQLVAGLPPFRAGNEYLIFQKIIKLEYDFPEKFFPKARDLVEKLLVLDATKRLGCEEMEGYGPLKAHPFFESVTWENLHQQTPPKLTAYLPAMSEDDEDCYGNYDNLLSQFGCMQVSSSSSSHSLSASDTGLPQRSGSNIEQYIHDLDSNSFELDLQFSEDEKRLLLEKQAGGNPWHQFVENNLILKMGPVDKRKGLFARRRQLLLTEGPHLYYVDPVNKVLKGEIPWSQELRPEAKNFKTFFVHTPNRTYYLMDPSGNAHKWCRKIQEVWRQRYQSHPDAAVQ

[9] = biological target: Mitogen-activated protein kinase 11 (Homo sapiens, UniProt Q15759)
[10] = biological target: Dual specificity protein kinase CLK2 (Homo sapiens) (UniProt P49760)
[11] = biological target: T4, Myotonin-protein kinase (Homo sapiens) (UniProt Q09013)
T4 sequence (whole entry): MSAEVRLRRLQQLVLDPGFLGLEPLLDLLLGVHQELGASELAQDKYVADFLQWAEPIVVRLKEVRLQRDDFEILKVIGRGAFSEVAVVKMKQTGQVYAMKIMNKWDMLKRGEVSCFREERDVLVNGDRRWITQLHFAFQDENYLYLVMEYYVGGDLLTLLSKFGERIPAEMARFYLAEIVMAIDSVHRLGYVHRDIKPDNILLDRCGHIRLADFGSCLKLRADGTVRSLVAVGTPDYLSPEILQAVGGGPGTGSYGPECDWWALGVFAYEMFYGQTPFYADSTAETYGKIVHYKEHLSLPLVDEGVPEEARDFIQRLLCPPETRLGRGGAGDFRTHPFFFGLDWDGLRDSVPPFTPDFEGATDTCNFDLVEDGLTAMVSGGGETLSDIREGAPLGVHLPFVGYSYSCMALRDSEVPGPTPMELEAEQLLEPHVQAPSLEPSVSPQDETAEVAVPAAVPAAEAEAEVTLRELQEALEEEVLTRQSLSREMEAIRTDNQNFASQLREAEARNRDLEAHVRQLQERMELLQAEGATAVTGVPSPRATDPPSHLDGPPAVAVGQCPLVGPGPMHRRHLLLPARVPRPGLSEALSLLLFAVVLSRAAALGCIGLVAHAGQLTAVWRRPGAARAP

Chain of Serine/threonine-protein kinase Nek6 (Homo sapiens) (Q9HC98 whole entry): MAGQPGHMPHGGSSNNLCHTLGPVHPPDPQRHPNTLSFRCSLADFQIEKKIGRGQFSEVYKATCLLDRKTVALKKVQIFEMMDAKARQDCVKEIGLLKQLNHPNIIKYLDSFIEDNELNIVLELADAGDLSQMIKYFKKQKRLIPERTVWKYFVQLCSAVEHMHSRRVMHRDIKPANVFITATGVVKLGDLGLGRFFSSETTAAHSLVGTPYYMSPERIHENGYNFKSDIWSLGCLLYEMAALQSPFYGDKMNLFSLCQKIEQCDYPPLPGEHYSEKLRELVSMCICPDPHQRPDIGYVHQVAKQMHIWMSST
Chain of Dual specificity protein kinase CLK2 (Homo sapiens) (P49760 whole entry, looked up): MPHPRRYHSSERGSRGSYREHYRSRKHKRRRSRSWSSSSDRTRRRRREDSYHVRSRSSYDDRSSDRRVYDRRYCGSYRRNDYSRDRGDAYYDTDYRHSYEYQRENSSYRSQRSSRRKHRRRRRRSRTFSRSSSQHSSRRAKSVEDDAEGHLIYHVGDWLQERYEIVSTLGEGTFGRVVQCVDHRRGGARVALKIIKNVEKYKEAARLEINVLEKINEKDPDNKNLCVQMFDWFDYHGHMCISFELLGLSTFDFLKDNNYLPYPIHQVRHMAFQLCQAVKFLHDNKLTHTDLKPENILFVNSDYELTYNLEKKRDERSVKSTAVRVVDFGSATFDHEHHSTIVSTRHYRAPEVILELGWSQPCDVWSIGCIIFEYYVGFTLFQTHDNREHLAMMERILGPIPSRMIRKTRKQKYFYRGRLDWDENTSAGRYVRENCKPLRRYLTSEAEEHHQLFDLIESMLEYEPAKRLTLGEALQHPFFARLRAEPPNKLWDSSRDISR
Chain of Mitogen-activated protein kinase 11 (Q15759 whole entry): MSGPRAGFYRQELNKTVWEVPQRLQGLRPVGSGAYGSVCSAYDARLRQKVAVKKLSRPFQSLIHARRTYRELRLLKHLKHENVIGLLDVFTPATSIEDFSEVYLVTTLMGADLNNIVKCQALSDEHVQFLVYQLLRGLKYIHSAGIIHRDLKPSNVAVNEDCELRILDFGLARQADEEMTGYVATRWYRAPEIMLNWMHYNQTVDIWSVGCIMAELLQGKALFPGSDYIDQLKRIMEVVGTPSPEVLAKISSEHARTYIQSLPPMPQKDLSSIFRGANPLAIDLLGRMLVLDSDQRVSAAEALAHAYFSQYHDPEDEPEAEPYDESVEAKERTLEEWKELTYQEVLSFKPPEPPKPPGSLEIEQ
Chain of Serine/threonine-protein kinase VRK2 (Homo sapiens) (Q86Y07 whole entry): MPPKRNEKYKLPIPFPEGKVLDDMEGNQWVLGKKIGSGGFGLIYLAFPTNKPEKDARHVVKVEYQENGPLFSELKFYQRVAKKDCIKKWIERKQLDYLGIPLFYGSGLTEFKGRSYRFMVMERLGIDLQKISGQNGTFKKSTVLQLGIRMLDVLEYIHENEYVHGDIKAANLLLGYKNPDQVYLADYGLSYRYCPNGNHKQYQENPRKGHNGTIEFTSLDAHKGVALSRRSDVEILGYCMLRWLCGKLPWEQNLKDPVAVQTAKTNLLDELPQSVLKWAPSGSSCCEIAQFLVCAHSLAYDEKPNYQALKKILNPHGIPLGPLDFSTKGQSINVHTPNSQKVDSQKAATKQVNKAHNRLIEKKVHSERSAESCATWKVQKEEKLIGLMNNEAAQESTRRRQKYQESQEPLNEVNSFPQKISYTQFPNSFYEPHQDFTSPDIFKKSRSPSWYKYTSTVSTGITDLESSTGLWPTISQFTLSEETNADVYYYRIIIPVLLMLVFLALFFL
Chain of Serine/threonine-protein kinase PAK 6 (Homo sapiens) (Q9NQU5 whole entry, looked up): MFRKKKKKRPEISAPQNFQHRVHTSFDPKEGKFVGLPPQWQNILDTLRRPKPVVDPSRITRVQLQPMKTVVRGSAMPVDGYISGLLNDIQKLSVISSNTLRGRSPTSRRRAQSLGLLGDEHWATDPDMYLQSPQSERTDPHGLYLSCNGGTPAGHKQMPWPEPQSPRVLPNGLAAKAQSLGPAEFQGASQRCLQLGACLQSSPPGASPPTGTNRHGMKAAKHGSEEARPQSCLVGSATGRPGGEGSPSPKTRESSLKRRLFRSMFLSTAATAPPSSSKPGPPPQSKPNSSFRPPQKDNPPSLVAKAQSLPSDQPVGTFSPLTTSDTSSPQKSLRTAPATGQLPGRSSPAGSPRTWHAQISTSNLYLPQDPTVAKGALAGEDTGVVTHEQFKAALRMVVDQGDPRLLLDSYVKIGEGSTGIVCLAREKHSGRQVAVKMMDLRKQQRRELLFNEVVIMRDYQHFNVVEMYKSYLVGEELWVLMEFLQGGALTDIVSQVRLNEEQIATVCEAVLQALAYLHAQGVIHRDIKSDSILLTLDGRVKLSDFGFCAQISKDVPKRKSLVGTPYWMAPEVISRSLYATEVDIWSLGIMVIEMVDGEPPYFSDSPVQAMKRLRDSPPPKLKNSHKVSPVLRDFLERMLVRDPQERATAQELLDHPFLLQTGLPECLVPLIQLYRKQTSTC
Chain of Serine/threonine-protein kinase 26 (Homo sapiens) (Q9P289 2-416 limits assumed): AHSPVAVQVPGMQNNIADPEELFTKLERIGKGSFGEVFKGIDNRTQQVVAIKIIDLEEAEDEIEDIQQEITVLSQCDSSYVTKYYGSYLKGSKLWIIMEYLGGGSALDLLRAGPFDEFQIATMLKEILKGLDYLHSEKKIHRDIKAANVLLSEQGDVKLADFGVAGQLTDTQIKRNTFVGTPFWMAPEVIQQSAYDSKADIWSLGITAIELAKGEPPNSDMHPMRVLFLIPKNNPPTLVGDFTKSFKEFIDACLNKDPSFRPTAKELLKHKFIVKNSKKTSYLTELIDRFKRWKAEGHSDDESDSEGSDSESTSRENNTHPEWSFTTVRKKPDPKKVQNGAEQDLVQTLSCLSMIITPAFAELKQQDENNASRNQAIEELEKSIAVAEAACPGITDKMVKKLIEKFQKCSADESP

Compound: O=S(=O)(c1cccc2c(Cl)cccc12)N1CCCNCC1
- ΔTm [1]: 1.4 °C
- ΔTm [2]: 0 °C
- ΔTm [3]: 0.4 °C
- ΔTm [4]: -0.1 °C
- ΔTm [5]: 0.7 °C
- ΔTm [6]: -0.1 °C
- ΔTm [7]: 0 °C
- ΔTm [8]: 0.1 °C
- ΔTm [9]: -0.3 °C
- ΔTm [10]: 0.6 °C
- ΔTm [11]: -0.2 °C

Compound: CN(C)CCCn1cc(C2=C(c3c[nH]c4ccccc34)C(=O)NC2=O)c2ccccc21 [GF-109203]
- ΔTm [1]: 3.6 °C
- ΔTm [2]: 0.9 °C
- ΔTm [3]: 3 °C
- ΔTm [4]: 1.7 °C
- ΔTm [5]: 1.3 °C
- ΔTm [6]: 2.4 °C
- ΔTm [7]: 0.9 °C
- ΔTm [8]: -0.2 °C
- ΔTm [9]: 0.7 °C
- ΔTm [10]: 4.1 °C
- ΔTm [11]: 3.9 °C

Compound: CN(C)S(=O)(=O)c1ccc2c(c1)/C(=C/c1cc3c([nH]1)CCCC3)C(=O)N2
- ΔTm [1]: 2.5 °C
- ΔTm [2]: 0.8 °C
- ΔTm [3]: 12.8 °C
- ΔTm [4]: 1 °C
- ΔTm [5]: 3.3 °C
- ΔTm [6]: -4.4 °C
- ΔTm [7]: 0.4 °C
- ΔTm [8]: 0.4 °C
- ΔTm [9]: 1.1 °C
- ΔTm [10]: 4.8 °C
- ΔTm [11]: -0.3 °C

Compound: CSc1nc(-c2ccc(F)cc2)c(-c2ccnc(NC(C)c3ccccc3)c2)[nH]1 (racemic)
- ΔTm [1]: -0.7 °C
- ΔTm [2]: 0.5 °C
- ΔTm [3]: 0.3 °C
- ΔTm [4]: -0.1 °C
- ΔTm [5]: 0.1 °C
- ΔTm [6]: -0.3 °C
- ΔTm [7]: 0.2 °C
- ΔTm [8]: -0.9 °C
- ΔTm [9]: 9.5 °C
- ΔTm [10]: 0.1 °C
- ΔTm [11]: 1.3 °C

Compound: C[S+]([O-])c1ccc(CSc2nc(-c3ccc(F)cc3)c(-c3ccncc3)[nH]2)cc1 (stereo not given)
- ΔTm [1]: -0.2 °C
- ΔTm [2]: -0.2 °C
- ΔTm [3]: 0.3 °C
- ΔTm [4]: 0 °C
- ΔTm [5]: 0 °C
- ΔTm [6]: 0 °C
- ΔTm [7]: 0.1 °C
- ΔTm [8]: -0.3 °C
- ΔTm [9]: 1.5 °C
- ΔTm [10]: 0.2 °C
- ΔTm [11]: 0.5 °C

Compound: O=C1c2ccccc2-[n+]2ccc3c([nH]c4ccccc43)c21 [FASCAPLYSIN CHLORIDE]
- ΔTm [1]: 0.6 °C
- ΔTm [2]: -0.1 °C
- ΔTm [3]: -0.1 °C
- ΔTm [4]: -2.5 °C
- ΔTm [5]: 1.5 °C
- ΔTm [6]: -0.9 °C
- ΔTm [7]: -0.8 °C
- ΔTm [8]: -2.7 °C
- ΔTm [9]: -1.3 °C
- ΔTm [10]: -0.4 °C
- ΔTm [11]: -0.9 °C

Compound: O=C1C(Cl)=C(N2C(=O)CCC2=O)C(=O)c2ccccc21
- ΔTm [1]: -0.2 °C
- ΔTm [2]: -0.3 °C
- ΔTm [3]: -3.7 °C
- ΔTm [4]: -2.1 °C
- ΔTm [5]: 0.5 °C
- ΔTm [6]: -5 °C
- ΔTm [7]: -0.3 °C
- ΔTm [8]: -1.9 °C
- ΔTm [9]: 8.6 °C
- ΔTm [10]: -1.3 °C
- ΔTm [11]: -0.9 °C

Compound: Cl.Cn1cc(C2=C(c3ccc4cc5n(c4c3)CCC(CN)C5)C(=O)NC2=O)c2ccccc21 (stereo not given)
- ΔTm [1]: 1.5 °C
- ΔTm [2]: -0.7 °C
- ΔTm [3]: 0.1 °C
- ΔTm [4]: 0.3 °C
- ΔTm [5]: 3.5 °C
- ΔTm [6]: 0.7 °C
- ΔTm [7]: 0.4 °C
- ΔTm [8]: 0 °C
- ΔTm [9]: -0.1 °C
- ΔTm [10]: 1 °C
- ΔTm [11]: 6 °C

Compound: CC(C)(C)n1nc(-c2ccc(Cl)cc2)c2c(N)ncnc21
- ΔTm [1]: 2.3 °C
- ΔTm [2]: 0.2 °C
- ΔTm [3]: 4.1 °C
- ΔTm [4]: -0.3 °C
- ΔTm [5]: 0.1 °C
- ΔTm [6]: -0.1 °C
- ΔTm [7]: 0.3 °C
- ΔTm [8]: -0.1 °C
- ΔTm [9]: 4.6 °C
- ΔTm [10]: 1.4 °C
- ΔTm [11]: 0.6 °C

Compound: Cc1ccc(NC(=O)c2cccc(N(C)C)c2)cc1NC(=O)c1ccc(O)cc1
- ΔTm [1]: 0.9 °C
- ΔTm [2]: 0.3 °C
- ΔTm [3]: 0.8 °C
- ΔTm [4]: 1 °C
- ΔTm [5]: 0.6 °C
- ΔTm [6]: 0.6 °C
- ΔTm [7]: 0.2 °C
- ΔTm [8]: -0.4 °C
- ΔTm [9]: 4.1 °C
- ΔTm [10]: 0.2 °C
- ΔTm [11]: -0.8 °C

Compound: N#C/C(=C(/N)Sc1ccc(N)cc1)c1ccccc1C(F)(F)F
- ΔTm [1]: 0.7 °C
- ΔTm [2]: -0.1 °C
- ΔTm [3]: 0.1 °C
- ΔTm [4]: 1 °C
- ΔTm [5]: 0.4 °C
- ΔTm [6]: 0.4 °C
- ΔTm [7]: 0.1 °C
- ΔTm [8]: -0.1 °C
- ΔTm [9]: 0 °C
- ΔTm [10]: 0 °C
- ΔTm [11]: 0.3 °C

Compound: c1ccc(-c2n[nH]c3c2oc2ccccc23)cc1
- ΔTm [1]: 2.8 °C
- ΔTm [2]: 0 °C
- ΔTm [3]: 1.2 °C
- ΔTm [4]: 3.4 °C
- ΔTm [5]: 1 °C
- ΔTm [6]: -0.3 °C
- ΔTm [7]: 0.6 °C
- ΔTm [8]: -0.5 °C
- ΔTm [9]: 1.2 °C
- ΔTm [10]: 1.7 °C
- ΔTm [11]: 0 °C

Compound: C/C(O)=C(\C#N)C(=O)Nc1cc(Br)ccc1Br
- ΔTm [1]: 1.4 °C
- ΔTm [2]: -0.2 °C
- ΔTm [3]: 1.1 °C
- ΔTm [4]: -0.1 °C
- ΔTm [5]: 0.6 °C
- ΔTm [6]: -0.2 °C
- ΔTm [7]: 0.1 °C
- ΔTm [8]: -3.7 °C
- ΔTm [9]: 0.3 °C
- ΔTm [10]: 0.5 °C
- ΔTm [11]: 0 °C

Compound: Cn1cnc2c(NCc3ccccc3)nc(NCCO)nc21 [OLOMOUCINE]
- ΔTm [1]: -0.1 °C
- ΔTm [2]: 0 °C
- ΔTm [3]: 0.2 °C
- ΔTm [4]: 0 °C
- ΔTm [5]: -0.1 °C
- ΔTm [6]: -0.5 °C
- ΔTm [7]: 0.2 °C
- ΔTm [8]: 0 °C
- ΔTm [9]: -0.1 °C
- ΔTm [10]: 0.1 °C
- ΔTm [11]: -0.1 °C

Compound: Cc1c2ccncc2c(C)c2c1[nH]c1ccccc12 [ELLIPTECINE]
- ΔTm [1]: 5.9 °C
- ΔTm [2]: 2.5 °C
- ΔTm [3]: 3.3 °C
- ΔTm [4]: 4.6 °C
- ΔTm [5]: 0.8 °C
- ΔTm [6]: -0.5 °C
- ΔTm [7]: -0.7 °C
- ΔTm [8]: 8.6 °C
- ΔTm [9]: 0.6 °C
- ΔTm [10]: 3.3 °C
- ΔTm [11]: 3.5 °C
